In US9156840B2, “D2 antagonists, methods of synthesis and methods of use” (ALTOS THERAPEUTICS, LLC, priority 2010, dated 2015):
Structures can show the parent of a compound that is named as a salt.

Target: T1, human D2 receptor (Homo sapiens, UniProt P14416)
T1 construct: expressed in transfected cells; cDNA from Origene clones TC308892 and SC123573
Test: D2 receptor radioligand binding assay (membranes of HEK-293 cells expressing human D2 receptor)
Details: radioligand displacement, HEK293 membranes, 37° C. for 120 minutes; read-out: Affinity Score (IC50 values for D2 on a scale of 1 through 5)
Procedure, shortened: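 Membranes from HEK-293 cells stably expressing human D2S or D2L, 10 μg protein per well. Compounds incubated with radioligand (KD 0.09 nM) in Tris buffer pH 7.4 with 0.025% BSA, 120 minutes at 37° C. Filtration and scintillation counting; Ki by Cheng–Prusoff.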

T1 sequence (P14416 whole entry): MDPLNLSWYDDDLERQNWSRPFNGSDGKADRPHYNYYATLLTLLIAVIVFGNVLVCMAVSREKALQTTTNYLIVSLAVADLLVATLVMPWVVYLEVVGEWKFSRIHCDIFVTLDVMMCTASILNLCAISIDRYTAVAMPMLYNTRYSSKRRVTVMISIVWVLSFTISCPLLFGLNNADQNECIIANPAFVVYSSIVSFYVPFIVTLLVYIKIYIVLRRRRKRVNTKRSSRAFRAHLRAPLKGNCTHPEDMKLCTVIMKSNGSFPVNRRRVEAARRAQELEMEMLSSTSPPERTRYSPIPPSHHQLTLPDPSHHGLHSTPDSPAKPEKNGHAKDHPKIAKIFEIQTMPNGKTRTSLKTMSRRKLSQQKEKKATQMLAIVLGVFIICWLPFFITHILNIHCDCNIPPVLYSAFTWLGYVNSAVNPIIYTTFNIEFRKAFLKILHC

O=C(CCCN1CCC2(CC1)C(=O)N(Cc1ccccc1C(=O)O)CN2C1CCCCC1)c1ccccc1 [Compound 218, 2-((1-Cyclohexyl-4-oxo-8-(4-oxo-4-phenylbutyl)-1,3,8-triazaspiro[4.5]decan-3-yl)methyl)benzoic acid, hydrochloride] was tested, and the IC50 was < 10 nM.
